The values that follow come from US20230026869A1, “CRYSTAL FORM OF NUCLEOPROTEIN INHIBITOR AND USE THEREOF” (CHIA TAI TIANQING PHARMACEUTICAL GROUP CO., LTD., priority 2019, published 2023).

The nature of series [1]: Liver-to-blood ratio in Balb/c mice orally administered with the test compound. The class given is in vivo. To be noted: Balb/c female mice, oral administration, 3 mg/kg. The procedure:
Experiment on the Liver-to-Blood Ratio in Balb/c Mice Orally Administered with the Test Compound The compound of formula (I) was mixed with an aqueous solution containing […] polyethylene glycol-15 hydroxystearate, and the mixture was vortexed and sonicated to prepare a 0.3 mg/mL clear solution for later use. Balb/c female mice aged 7 to 10 weeks were orally administered with the candidate compound solution at a dose of 3 mg/kg. Whole blood at a certain time point was collected and plasma was prepared. Liver tissues at the corresponding time point were collected to prepare a tissue homogenate. Drug concentration was analyzed by LC-MS/MS and pharmacokinetic parameters were calculated with Phoenix WinNonlin software.

Series [2] in a line: Metabolic stability in liver microsomes of cynomolgus monkeys. The class given is in vitro ADME. The settings on record: cynomolgus monkey. The procedure: Objective: The metabolic stability of the tested compound of formula (I) in liver microsomes of rats, beagle dogs and cynomolgus monkeys was determined. […]
A general note: Microsomes from liver hold many membrane-bound enzymes, among them those of drug oxidation.

Series [3] in a line: Experiment on cytotoxicity (CellTiter-Glo, 3 days). To be noted: 3 days incubation, read-out: 50% cytotoxic concentration (CC50). It is filed as cell-based. The procedure:
• 1. The compound was diluted with DMSO (dimethyl sulfoxide) in a 3-fold gradient for 9 concentrations, and added into a 96-well plate in duplicate. The compound concentration was 200-fold of the final test concentration. • 2. The cells were rinsed with PBS (phosphate buffered saline) once, added with 0.25% trypsin and digested for about 2-5 min in a 37° C., 5% CO2 incubator. Then the digestion was terminated with a cell culture medium and the cells were dispersed into single cells by pipetting with a pipettor. • 3. The cell density was counted with a cell counter, and adjusted to the required density with the medium. • 4. The cells were added into a 96-well plate that had been added with the compound. The final concentration of DMSO in each well was 0.5%. Wells containing 0.5% DMSO were used as non-toxic negative controls, and wells containing the cell culture medium were used as 100% cytotoxicity controls. Then the cell plate was incubated in a 37° C., 5% CO2 cell incubator for 3 days. • 5. The chemiluminescence signal (RLU, relative chemiluminescence unit) of each well in the cell plate was detected with the cell viability detection kit CellTiter-Glo using the multi-functional microplate reader Envision, with instructions on the kit followed. • 6. The raw data (RLU) were substituted into the following formula to calculate the cell viability of each well (cell viability %): […]
On the technique in general: ATP-based viability assays read luminescence as a measure of living cells.

Series [4] deals with hepatitis B virus. The experiment in a line: In vivo efficacy study, HDJ/HBV mouse model (HBV DNA in plasma and liver by qPCR). On the set-up: species or system mice. As to the method:
Objective: The efficacy of the compound against hepatitis B virus in mice was determined through the HDJ/HBV mouse model.
Preparation of compound: the solvent was 10% polyethylene glycol-15 hydroxystearate; a certain amount of the tested compound of formula (I) was dissolved in an aqueous solution containing 10% polyethylene glycol-15 hydroxystearate, and the mixture was vortexed and sonicated to prepare a homogeneous suspension, and the suspension was stored at 4° C. for later use.
High pressure injection of the HBV plasmid DNA solution via the tail vein of mice: the day of plasmid injection was day 0, the day after injection was day 1, and so on. On day 0, all animals were injected by tail vein with a saline solution containing 10 μg of plasmid DNA at a volume of […] of body weight, and the injection was completed within 5 seconds.
Administration: all mice were administered intragastrically twice a day (8/16 h interval) on day 1-6 and once on day 7. All mice were euthanized in the afternoon on day 7. The body weight of the mice, which was monitored every day, remained stable throughout the experiment.
Sample collection: blood was collected from the submandibular vein 4 h after the first administration in the morning on days 1, 3, and 5. All blood samples were collected in K2-EDTA anticoagulation tubes, and centrifuged for 10 min at 4° C., 7000 g to prepare about 40 μL of plasma. All mice were euthanized by CO2 four hours after administration in the morning on day 7. Blood was collected from the heart, and the plasma preparation method was the same as above. Two liver tissues were collected with 70-100 mg each, and quick-frozen by liquid nitrogen. After all samples were collected, they were stored in a refrigerator (−80° C.) for HBV DNA content detection.
Sample analysis: all plasma samples and liver samples were detected for HBV DNA by qPCR.

Setting [5] is: 10 mg/kg intragastrically twice a day.
The mark [6] stands for this setting: 30 mg/kg intragastrically twice a day.

A word on the AUC(0-t): it is exposure summed from dosing to a finite time, without extrapolation to infinity. A word on the microsomal CLint: it is the capacity of the preparation to metabolise the compound, expressed as a volume cleared per time. A lower microsomal CLint goes with greater metabolic stability. By CLint scaled is commonly meant the capacity of the preparation to metabolise the compound, expressed as a volume cleared per time. The term half-life denotes the time in which the quantity being followed falls by half. Take `CC1(NC(=O)C(=O)c2c(Cl)c(C(=O)Nc3cc(F)c(F)c(F)c3)c3n2CCC3)CCC(CC(=O)O)CC1` (centres unmarked) [Compound of formula (I)]: in series [1] (Liver), the AUC0-last worked out at 86036 nmol·h/kg. Also, the Kp in series [1] (mouse, liver / plasma, read-out: AUC ratio (L/P) Liver/plasma exposure ratio) is 24.7. For the same compound, the AUC(0-t) in series [1] (mouse, Plasma) stood at 3.48 µM·h. Also, the microsomal CLint at 1 μM in series [2] (microsomes) was less than 9.6 µL/min/mg. The CLint scaled at 1 μM in series [2] (Cynomolgus monkeys liver microsomes) was less than 13 mL/min/kg. The compound further gave a half-life at 1 μM in series [2] (Cynomolgus monkeys liver microsomes, 1 μM compound, 0.5 mg/mL) greater than 2.42 h. In series [3], the CC50 at 3 days is greater than 50 µM. The “HBV-DNA reduction, Liver (day 7)” value is 0.94 Δ Log10 copies/100 ng in series [4] (setting [5]) and 2.36 Δ Log10 copies/100 ng in series [4] (setting [6]). The “HBV-DNA reduction, Plasma (day 5)” value is listed as 2.0 Δ Log10 copies/μL in series [4] (setting [5]) and 3.57 Δ Log10 copies/μL in series [4] (setting [6]).
